Measured values from patent US20140342379A1, “Means and Methods for Assessing Gonadal Toxicity” (BASF SE, priority 2011, published 2014).
Marks after values point to notes of the source that are not given here.

Test system: male rats
Assay: 28-day repeated dose study, plasma metabolite profiling (GC-MS, LC-MS), male rats
Assay type: in vivo, rat
Excerpt: Drinking water was also offered ad libitum.

With `Cc1ncc[nH]1` [2-Methylimidazole] the “18-Hydroxy-11-deoxycorticosterone, plasma, treatment ratio versus control” value (day 7) was 0.49*, the “Alanine, plasma, treatment ratio versus control” value (day 7) was 0.76* and the “Arachidonic acid (C20:cis[5,8,11,14]4), plasma, treatment ratio versus control” value (day 7) was 0.76*. For the same compound, the “Coenzyme Q9, plasma, treatment ratio versus control” value (day 7) was 0.72*, the “Creatinine, plasma, treatment ratio versus control” value (day 7) was 1.23* and the “DAG (C18:1, C18:2), plasma, treatment ratio versus control” value (from here on “DAG … treatment ratio versus control”) (day 7) was 0.81. For the same compound, the “Fructose-6-phosphate, plasma, treatment ratio versus control” value (day 7) was 0.76, the “Galactose, lipid fraction, plasma, treatment ratio versus control” value (day 7) was 0.81* and the “Glucosamine, plasma, treatment ratio versus control” value (day 7) was 1. For the same compound, the “Glucose, plasma, treatment ratio versus control” value (day 7) was 0.86*, the “Glycerol, polar fraction, plasma, treatment ratio versus control” value (day 7) was 0.75* and the “Heneicosanoic acid (C21:0), plasma, treatment ratio versus control” value (day 7) was 0.92. The “Lactate, plasma, treatment ratio versus control” value (day 7) was 0.68, the “Linolenic acid (C18:cis[9,12,15]3), plasma, treatment ratio versus control” value (“Linolenic acid … treatment ratio versus control” for short) (day 7) was 0.59* and the “Lysine, plasma, treatment ratio versus control” value (day 7) was 0.81*. The “Malate, plasma, treatment ratio versus control” value (day 7) was 0.65*, the “Oleic acid (C18:cis[9]1), plasma, treatment ratio versus control” value (day 7) was 0.85* and the “Palmitoleic acid (C16:cis[9]1), plasma, treatment ratio versus control” value (day 7) was 0.81. For the same compound, the “Phenylalanine, plasma, treatment ratio versus control” value (day 7) was 0.96, the “Phosphate (inorganic and organic phosphates), plasma, treatment ratio versus control” value (day 7) was 0.9* and the “Pyruvate, plasma, treatment ratio versus control” value (day 7) was 0.84. For the same compound, the “Spermidine, plasma, treatment ratio versus control” value (day 7) was 0.77*, the “TAG (C16:0,C16:1), plasma, treatment ratio versus control” value (from here on “TAG … treatment ratio versus control”) (day 7) was 0.67* and the “Uracil, plasma, treatment ratio versus control” value (day 7) was 0.67*. The “myo-Inositol, plasma, treatment ratio versus control” value (day 7) was 0.85*, the “trans-4-Hydroxyproline, plasma, treatment ratio versus control” value (day 7) was 0.73* and the “18-Hydroxy-11-deoxycorticosterone, plasma, treatment ratio versus control” value (day 14) was 0.59*. For the same compound, the “Alanine, plasma, treatment ratio versus control” value (day 14) was 0.84*, the “Arachidonic acid (C20:cis[5,8,11,14]4), plasma, treatment ratio versus control” value (day 14) was 0.83* and the “Coenzyme Q9, plasma, treatment ratio versus control” value (day 14) was 0.67*. The “Creatinine, plasma, treatment ratio versus control” value (day 14) was 1.45*, the “DAG … treatment ratio versus control” value (day 14) was 0.74* and the “Fructose-6-phosphate, plasma, treatment ratio versus control” value (day 14) was 1.08. The “Galactose, lipid fraction, plasma, treatment ratio versus control” value (day 14) was 1, the “Glucosamine, plasma, treatment ratio versus control” value (day 14) was 1.15 and the “Glucose, plasma, treatment ratio versus control” value (day 14) was 0.88*. The “Glycerol, polar fraction, plasma, treatment ratio versus control” value (day 14) was 0.84*, the “Heneicosanoic acid (C21:0), plasma, treatment ratio versus control” value (day 14) was 0.87* and the “Lactate, plasma, treatment ratio versus control” value (day 14) was 0.69*. For the same compound, the “Linolenic acid … treatment ratio versus control” value (day 14) was 0.57*, the “Lysine, plasma, treatment ratio versus control” value (day 14) was 0.97 and the “Malate, plasma, treatment ratio versus control” value (day 14) was 0.8*. The “Oleic acid (C18:cis[9]1), plasma, treatment ratio versus control” value (day 14) was 0.82*, the “Palmitoleic acid (C16:cis[9]1), plasma, treatment ratio versus control” value (day 14) was 0.77* and the “Phenylalanine, plasma, treatment ratio versus control” value (day 14) was 0.96*. The “Phosphate (inorganic and organic phosphates), plasma, treatment ratio versus control” value (day 14) was 0.89*, the “Pyruvate, plasma, treatment ratio versus control” value (day 14) was 0.69* and the “Spermidine, plasma, treatment ratio versus control” value (day 14) was 0.69*. The “TAG … treatment ratio versus control” value (day 14) was 0.38*, the “Uracil, plasma, treatment ratio versus control” value (day 14) was 0.67* and the “myo-Inositol, plasma, treatment ratio versus control” value (day 14) was 0.97. The “trans-4-Hydroxyproline, plasma, treatment ratio versus control” value (day 14) was 0.75*, the “18-Hydroxy-11-deoxycorticosterone, plasma, treatment ratio versus control” value (day 28) was 0.58 and the “Alanine, plasma, treatment ratio versus control” value (day 28) was 0.92*. The “Arachidonic acid (C20:cis[5,8,11,14]4), plasma, treatment ratio versus control” value (day 28) was 0.97, the “Coenzyme Q9, plasma, treatment ratio versus control” value (day 28) was 0.73* and the “Creatinine, plasma, treatment ratio versus control” value (day 28) was 1.65*. The “DAG … treatment ratio versus control” value (day 28) was 0.67, the “Fructose-6-phosphate, plasma, treatment ratio versus control” value (day 28) was 0.83* and the “Galactose, lipid fraction, plasma, treatment ratio versus control” value (day 28) was 1.15. For the same compound, the “Glucosamine, plasma, treatment ratio versus control” value (day 28) was 0.84, the “Glucose, plasma, treatment ratio versus control” value (day 28) was 0.87* and the “Glycerol, polar fraction, plasma, treatment ratio versus control” value (day 28) was 0.79*. The “Heneicosanoic acid (C21:0), plasma, treatment ratio versus control” value (day 28) was 1.08, the “Lactate, plasma, treatment ratio versus control” value (day 28) was 0.77* and the “Linolenic acid … treatment ratio versus control” value (day 28) was 0.53*. For the same compound, the “Lysine, plasma, treatment ratio versus control” value (day 28) was 0.88*, the “Malate, plasma, treatment ratio versus control” value (day 28) was 0.69* and the “Oleic acid (C18:cis[9]1), plasma, treatment ratio versus control” value (day 28) was 0.8*. For the same compound, the “Palmitoleic acid (C16:cis[9]1), plasma, treatment ratio versus control” value (day 28) was 0.88*, the “Phenylalanine, plasma, treatment ratio versus control” value (day 28) was 0.93* and the “Phosphate (inorganic and organic phosphates), plasma, treatment ratio versus control” value (day 28) was 1.02. The “Pyruvate, plasma, treatment ratio versus control” value (day 28) was 0.69*, the “Spermidine, plasma, treatment ratio versus control” value (day 28) was 0.79* and the “TAG … treatment ratio versus control” value (day 28) was 0.71*. For the same compound, the “Uracil, plasma, treatment ratio versus control” value (day 28) was 0.77*, the “myo-Inositol, plasma, treatment ratio versus control” value (day 28) was 0.91* and the “trans-4-Hydroxyproline, plasma, treatment ratio versus control” value (day 28) was 0.81*.
`C#CC1(O)CCC2C3CCc4cc(O)ccc4C3CCC21C` (stereo not drawn) [17-alpha-Ethynylestradiol, 17-ethynyl-13-methyl-7,8,9,11,12,13,14,15,16,17-decahydro-6H-cyclopenta[a]phenanthrene-3,17-diol] was tested, and the “3-Hydroxybutyrate, plasma, treatment ratio versus control” value (day 7) was 0.71, the “3-O-Methylsphingosine (d18:1), plasma, treatment ratio versus control” value (day 7) was 0.06 and the “Campesterol, plasma, treatment ratio versus control” value (day 7) was 0.08. The “Cholesterol, plasma, treatment ratio versus control” value (day 7) was 0.05, the “Coenzyme Q9, plasma, treatment ratio versus control” value (day 7) was 0.09* and the “Coenzyme Q10, plasma, treatment ratio versus control” value (day 7) was 0.09*. The “Glutamine, plasma, treatment ratio versus control” value (day 7) was 0.84, the “Histidine, plasma, treatment ratio versus control” value (day 7) was 2.33* and the “Lysine, plasma, treatment ratio versus control” value (day 7) was 1.47. The “Palmitoleic acid (C16:cis[9]1), plasma, treatment ratio versus control” value (day 7) was 0.2, the “Stearic acid (C18:0), plasma, treatment ratio versus control” value (day 7) was 0.18 and the “Threonine, plasma, treatment ratio versus control” value (day 7) was 1.44*. For the same compound, the “erythro-Sphingosine, plasma, treatment ratio versus control” value (day 7) was 0.03, the “3-Hydroxybutyrate, plasma, treatment ratio versus control” value (day 14) was 0.23* and the “3-O-Methylsphingosine (d18:1), plasma, treatment ratio versus control” value (day 14) was 0.35*. The “Campesterol, plasma, treatment ratio versus control” value (day 14) was 0.6*, the “Cholesterol, plasma, treatment ratio versus control” value (day 14) was 0.57* and the “Coenzyme Q9, plasma, treatment ratio versus control” value (day 14) was 0.86. The “Coenzyme Q10, plasma, treatment ratio versus control” value (day 14) was 0.36*, the “Glutamine, plasma, treatment ratio versus control” value (day 14) was 0.91 and the “Histidine, plasma, treatment ratio versus control” value (day 14) was 2.16*. For the same compound, the “Lignoceric acid (C24:0), plasma, treatment ratio versus control” value (day 14) was 0.47*, the “Lysine, plasma, treatment ratio versus control” value (day 14) was 1.4* and the “Palmitoleic acid (C16:cis[9]1), plasma, treatment ratio versus control” value (day 14) was 1.28. For the same compound, the “Stearic acid (C18:0), plasma, treatment ratio versus control” value (day 14) was 0.67*, the “Threonine, plasma, treatment ratio versus control” value (day 14) was 1.85* and the “erythro-Sphingosine, plasma, treatment ratio versus control” value (day 14) was 0.45*.
